Calls of active or inactive are those of the source.
Key:
[1] = target: Sphingosine 1-phosphate receptor 4 (Homo sapiens, UniProt O95977); assay: Fluorescence dose response cell-based high throughput screening assay for antagonists of the Sphingosine 1-Phosphate Receptor 4 (S1P4). [Related pubchem assays: 1524 (Confirmation in triplicates.), 1510 (Primary screen.)]; type: functional
BJ = assay: cytotoxicity toward BJ-TERT-LT-ST fibroblasts, dose response, cell-based, RAS-independent, luminescence (AID 1935); type: functional; details: Homo sapiens;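 also: BJ fibroblasts immortalized with TERT plus LT and ST oncogenes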
Vero = assay: cells; type: functional; details: Chlorocebus sabaeus
[2] = target: T1, Sentrin-specific protease 6 (Homo sapiens, UniProt Q9GZR1); assay: SAR Analysis of small molecule inhibitors of Sentrin-specific protease 6 (SENP6) using a Luminescent assay. [Related pubchem assays (depositor defined):AID2582, AID2599]; type: functional
T1 sequence (Q9GZR1 whole entry): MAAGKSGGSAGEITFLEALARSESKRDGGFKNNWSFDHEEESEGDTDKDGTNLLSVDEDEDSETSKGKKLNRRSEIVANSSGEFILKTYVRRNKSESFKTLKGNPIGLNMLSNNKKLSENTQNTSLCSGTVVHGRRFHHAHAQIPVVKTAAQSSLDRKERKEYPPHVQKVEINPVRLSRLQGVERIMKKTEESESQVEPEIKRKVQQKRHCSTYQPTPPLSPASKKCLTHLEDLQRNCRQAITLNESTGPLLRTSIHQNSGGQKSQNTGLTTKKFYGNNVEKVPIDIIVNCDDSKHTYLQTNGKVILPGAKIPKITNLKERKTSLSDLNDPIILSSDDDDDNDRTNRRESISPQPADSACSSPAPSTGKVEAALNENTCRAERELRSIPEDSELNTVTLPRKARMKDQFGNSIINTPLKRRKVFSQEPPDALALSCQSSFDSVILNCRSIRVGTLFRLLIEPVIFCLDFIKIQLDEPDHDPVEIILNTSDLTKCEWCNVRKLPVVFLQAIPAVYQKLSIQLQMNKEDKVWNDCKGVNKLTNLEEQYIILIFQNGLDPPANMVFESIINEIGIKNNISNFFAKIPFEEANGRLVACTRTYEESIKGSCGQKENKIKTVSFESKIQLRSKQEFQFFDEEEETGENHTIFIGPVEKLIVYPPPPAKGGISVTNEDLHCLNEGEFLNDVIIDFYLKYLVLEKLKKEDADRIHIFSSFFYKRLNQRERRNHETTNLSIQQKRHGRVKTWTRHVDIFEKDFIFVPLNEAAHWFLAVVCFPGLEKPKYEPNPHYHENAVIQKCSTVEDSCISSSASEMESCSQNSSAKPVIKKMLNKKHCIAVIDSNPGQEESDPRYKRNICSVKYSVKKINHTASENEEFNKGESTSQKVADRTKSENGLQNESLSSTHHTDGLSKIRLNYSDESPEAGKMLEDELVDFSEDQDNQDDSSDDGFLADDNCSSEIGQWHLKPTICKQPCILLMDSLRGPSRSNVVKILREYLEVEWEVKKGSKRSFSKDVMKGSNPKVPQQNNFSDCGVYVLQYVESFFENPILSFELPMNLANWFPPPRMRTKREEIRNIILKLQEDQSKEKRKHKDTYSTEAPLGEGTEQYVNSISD

Phospholipase A2 = Phospholipase A2 (Homo sapiens, UniProt P04054); type: functional;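 also: confirmatory dose-response counterscreen on phospholipase A2, testing hits that came from an ultra-high-throughput screen for ATG4B inhibitors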
[3] = target: Dual specificity tyrosine-phosphorylation-regulated kinase 1A (Rattus norvegicus, UniProt Q63470); type: biochemical, Homo sapiens
Cysteine protease ATG4B = target: T2, Cysteine protease ATG4B (Homo sapiens, UniProt Q9Y4P1); type: functional;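 also: Fluorescence-based dose-response confirmation assay measuring inhibition of ATG4B activity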
T2 sequence (Q9Y4P1 whole entry): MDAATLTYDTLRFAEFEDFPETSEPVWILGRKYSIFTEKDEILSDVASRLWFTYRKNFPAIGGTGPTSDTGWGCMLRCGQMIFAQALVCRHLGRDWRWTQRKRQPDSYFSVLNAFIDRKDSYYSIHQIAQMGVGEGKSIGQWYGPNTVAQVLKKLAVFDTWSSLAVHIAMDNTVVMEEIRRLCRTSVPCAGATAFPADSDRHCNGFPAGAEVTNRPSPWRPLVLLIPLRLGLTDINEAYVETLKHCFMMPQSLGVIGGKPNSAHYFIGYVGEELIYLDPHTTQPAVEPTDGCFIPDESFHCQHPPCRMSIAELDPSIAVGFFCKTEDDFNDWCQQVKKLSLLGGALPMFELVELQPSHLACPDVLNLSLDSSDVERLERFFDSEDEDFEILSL

Streptokinase A = target: T3, Streptokinase A (Streptococcus pyogenes serotype M1, UniProt P10520); assay: S. pyogenes streptokinase expression inhibitors, potency, dose response, plasminogen activation absorbance, OD405 (AID 1914); type: functional, Streptococcus pyogenes M1 GAS;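 also: secreted streptokinase activity via plasminogen activation per viability signal from cell pellet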
T3 sequence (P10520 whole entry): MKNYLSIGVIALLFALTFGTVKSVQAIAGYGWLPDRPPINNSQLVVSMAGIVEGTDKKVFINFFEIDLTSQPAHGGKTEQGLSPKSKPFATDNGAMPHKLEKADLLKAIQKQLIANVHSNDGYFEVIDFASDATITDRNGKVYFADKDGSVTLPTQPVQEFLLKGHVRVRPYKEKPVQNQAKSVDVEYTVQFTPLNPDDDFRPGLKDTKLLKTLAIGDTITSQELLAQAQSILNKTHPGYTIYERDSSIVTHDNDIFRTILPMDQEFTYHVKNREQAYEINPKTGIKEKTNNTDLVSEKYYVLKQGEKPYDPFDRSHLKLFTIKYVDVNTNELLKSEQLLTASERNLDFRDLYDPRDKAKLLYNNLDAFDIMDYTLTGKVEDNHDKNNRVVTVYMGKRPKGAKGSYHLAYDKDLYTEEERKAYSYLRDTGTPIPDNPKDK

Sphingosine 1-phosphate receptor 4, sequence (O95977 whole entry): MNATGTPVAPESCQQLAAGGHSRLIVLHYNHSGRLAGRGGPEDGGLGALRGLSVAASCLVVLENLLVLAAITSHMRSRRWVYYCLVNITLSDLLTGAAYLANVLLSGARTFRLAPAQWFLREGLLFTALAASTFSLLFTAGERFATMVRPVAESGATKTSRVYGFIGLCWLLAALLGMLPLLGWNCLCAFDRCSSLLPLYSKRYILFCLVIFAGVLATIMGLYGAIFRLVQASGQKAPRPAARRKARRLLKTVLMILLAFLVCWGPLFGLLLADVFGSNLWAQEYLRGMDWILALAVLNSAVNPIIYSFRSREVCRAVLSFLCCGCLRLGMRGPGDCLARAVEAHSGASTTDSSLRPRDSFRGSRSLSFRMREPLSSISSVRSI
Phospholipase A2, sequence (P04054 whole entry): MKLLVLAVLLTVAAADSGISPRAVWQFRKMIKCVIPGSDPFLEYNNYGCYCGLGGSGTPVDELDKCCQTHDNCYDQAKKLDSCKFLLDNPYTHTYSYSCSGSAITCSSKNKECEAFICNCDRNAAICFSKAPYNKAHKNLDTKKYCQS

In the case of `COC(=O)C[C@]1(C(=O)OC)CN(C#N)N(c2ccc(Cl)cc2)C12c1ccccc1-c1ccccc12`, the IC50 [1] is reported as 0.341 µM (active) and the EC50 (BJ) is reported as 2.78 µM (inconclusive).
`O=C(Nc1ccc(C#Cc2ccccc2)cc1)C1CC1` was tested, and the CC50 (Vero) was > 25 µM (active) and the IC50 [2] was > 99 µM (inactive).
In the case of `Cc1ccccc1NC1=C/C(=N\S(=O)(=O)c2ccc(C(=O)O)cc2)c2ccccc2C1=O`, the IC50 (Phospholipase A2) is reported as 15.4 µM (active), the AC50 [3] is reported as 4.11 µM (active) and the IC50 (Cysteine protease ATG4B) is reported as 5.85 µM (active).
With `COc1ccc(-c2cc(-c3ccc(C)cc3)[nH]n2)c(O)c1` the EC50 (Streptokinase A) was > 150 µM (not active).
